# In patent US20220402984A1, “LYSIN-ANTIMICROBIAL PEPTIDE (AMP) POLYPEPTIDE CONSTRUCTS, LYSINS, ISOLATED POLYNUCLEOTIDES ENCODING SAME AND USES THEREOF” (priority 2018, published 2022):
# Where two headings read alike, the source gives them in different places.
# Experiments:
# [1] = test system: P. aeruginosa (strain WC-452); experiment: 21-day serial passage resistance assay; assay type: cell-based, Pseudomonas aeruginosa; conditions: over 18 days
# Method: […]. An analysis of bacterial resistance was performed using P. aeruginosa (strain WC-452) over 21 days of serial passage in the presence of a GN-lysin dilution series (in duplicate). […] The well with the highest concentration of GN lysin in which bacterial growth was seen was then used as the inoculum for the next day's passage, and the process was repeated over a 21 day period. The MIC at each daily time-point was recorded, and resistance was measured as a step-wise increase in MIC.
# [2] = test system: carbapenem-resistant P. aeruginosa strains; assay type: cell-based, Pseudomonas aeruginosa
# Method: Such resensitization may be determined by combining the present lysins or lysin-AMP polypeptide constructs with an antibiotic in a checkerboard assay as described herein. Antibiotic-resistant bacteria, such as carbapenem-resistant P. aeruginosa, are added to the lysin or lysin-AMP polypeptide construct combination. […] See Clinical and Laboratory Standards Institute (CLSI), CLSI. […] M100 Performance Standards for Antimicrobial Susceptibility Testing; 29th Edition. Clinical and Laboratory Standards Institute, Wayne, Pa., which is herein incorporated by reference in its entirety.
# Up to seven carbapenem-resistant isolates were assessed. […] See Clinical and Laboratory Standards Institute (CLSI), CLSI. […] M100 Performance Standards for Antimicrobial Susceptibility Testing; 29th Edition. Clinical and Laboratory Standards Institute, Wayne, Pa.
# [3] = test system: P. aeruginosa isolate CFS 1558 (PA20); experiment: Rabbit pulmonary model establishment: inoculum and meropenem static dose; assay type: in vivo; conditions: for Bacterial Burden, Kidneys / Bacterial Burden, Lung 1 / Bacterial Burden, Lung 2 / Bacterial Burden, Spleen: sacrificed 18-24 hours after last dose
# From the text: 3×10^9 CFU of the P. aeruginosa isolate was used to challenge the rabbits during the efficacy study described below.
# Staphylococcus aureus = experiment: Daptomycin MIC in […] (positive control); assay type: cell-based; conditions: S. aureus
# Method: As a positive control, the impact of […] ® on daptomycin (DAP) activity against Staphylococcus aureus was also tested.
# [4] = Meropenem 10 mg/kg, three times a day subcutaneous for two days
# [5] = Meropenem 20 mg/kg, three times a day subcutaneous for two days
# [6] = Meropenem 30 mg/kg, three times a day subcutaneous for two days
# [7] = Meropenem 40 mg/kg, three times a day subcutaneous for two days
molecule,measurement,setting,value
O=C(O)c1cn(C2CC2)c2cc(N3CCNCC3)c(F)cc2c1=O [Ciprofloxacin],increase in MIC during serial passage,[1],16 fold
"C[C@@H](O)[C@H]1C(=O)N2C(C(=O)O)=C(SCCN=CN)C[C@H]12 [Imipenem, imipenem]",Antibiotic MIC Alone,[2]; IPM + GN351 vs. WC-452,16 (R)
same,Antibiotic MIC Alone,[2]; IPM + GN370 vs. WC-452,16 (R)
same,Antibiotic MIC Alone,[2]; IPM + GN428 vs. WC-452,16 (R)
"C[C@@H](O)[C@H]1C(=O)N2C(C(=O)O)=C(S[C@@H]3CN[C@H](C(=O)N(C)C)C3)[C@H](C)[C@H]12 [Meropenem, meropenem]",Antibiotic MIC Alone,[2]; MEM + GN351 vs. WC-452,16 (R)
same,Antibiotic MIC Alone,[2]; MEM + GN370 vs. WC-452,16 (R)
same,Antibiotic MIC Alone,[2]; MEM + GN428 vs. WC-452,16 (R)
same,"Bacterial Burden, Kidneys",[3]; [4],4.36 ± 0.43 log10 CFU/g
same,"Bacterial Burden, Lung 1",[3]; [4],7.39 ± 0.34 log10 CFU/g
same,"Bacterial Burden, Lung 2",[3]; [4],7.42 ± 0.64 log10 CFU/g
same,"Bacterial Burden, Spleen",[3]; [4],4.01 ± 0.10 log10 CFU/g
same,"Bacterial Burden, Kidneys",[3]; [5],4.51 ± 0.73 log10 CFU/g
same,"Bacterial Burden, Lung 1",[3]; [5],6.85 ± 1.09 log10 CFU/g
same,"Bacterial Burden, Lung 2",[3]; [5],6.97 ± 1.19 log10 CFU/g
same,"Bacterial Burden, Spleen",[3]; [5],4.74 ± 0.57 log10 CFU/g
same,"Bacterial Burden, Kidneys",[3]; Meropenem 25 mg/kg,2.06 ± 0.58 log10 CFU/g
same,"Bacterial Burden, Lung 1",[3]; Meropenem 25 mg/kg,4.55 ± 1.65 log10 CFU/g
same,"Bacterial Burden, Lung 2",[3]; Meropenem 25 mg/kg,3.73 ± 1.03 log10 CFU/g
same,"Bacterial Burden, Spleen",[3]; Meropenem 25 mg/kg,2.15 ± 0.78 log10 CFU/g
same,"Bacterial Burden, Kidneys",[3]; [6],2.24 ± 0.64 log10 CFU/g
same,"Bacterial Burden, Lung 1",[3]; [6],4.83 ± 1.19 log10 CFU/g
same,"Bacterial Burden, Lung 2",[3]; [6],4.42 ± 1.14 log10 CFU/g
same,"Bacterial Burden, Spleen",[3]; [6],1.97 ± 0.63 log10 CFU/g
same,"Bacterial Burden, Kidneys",[3]; [7],2.34 ± 0.65 log10 CFU/g
same,"Bacterial Burden, Lung 1",[3]; [7],4.66 ± 0.11 log10 CFU/g
same,"Bacterial Burden, Lung 2",[3]; [7],2.95 ± 1.19 log10 CFU/g
same,"Bacterial Burden, Spleen",[3]; [7],1.93 ± 0.47 log10 CFU/g
same,meropenem dosage establishing a static effect,"[3]; three times a day, subcutaneous, two days, rabbits",20 mg/kg
daptomycin,fold increase in MIC,Staphylococcus aureus; 0.09% SURVANTA,32
same,fold increase in MIC,Staphylococcus aureus; 0.19% SURVANTA,32
same,fold increase in MIC,Staphylococcus aureus; 1.56% SURVANTA,128
same,fold increase in MIC,Staphylococcus aureus; 3.15% SURVANTA,128
